Patent US6495683B2, “4-oxo-4,7-dihydro-thieno[2,3-b]pyridine-5-carboxamides as antiviral agents” (Pharmacia and Upjohn Company, priority 1999, dated 2002)
Counter-ions that a name gives are not always drawn. Like-named read-outs stand apart in the source and are kept apart here.

Columns and labels:
[1] = biological target: VZV polymerase (Varicella-zoster virus, UniProt P09252); experiment: biochemical
[2] = biological target: T1, HCMV polymerase (Human cytomegalovirus, UniProt P08546); experiment: biochemical; conditions: modified SPA assay: compounds diluted in 100% DMSO, 4.5 mM DTT in polymerase buffer; read-out: polymerase IC50 (μM) HCMV
T1 construct: made in house; host or cells: recombinant baculovirus-infected SF-9 cells
Protocol: The HCMV polymerase assay is performed using a scintillation proximity assay (SPA) as described in several references, such as N. D. Cook, et al., Pharmaceutical Manufacturing International, pages 49-53 (1992); K. Takeuchi, Laboratory Practice, September issue (1992); U.S. Pat. No. 4,568,649 (1986); which are incorporated by reference herein. Reactions are performed in 96-well plates. The assay is conducted in 100 μl volume with 5.4 mM HEPE (pH 7.5), 11.7 mM KCl, 4.5 mM MgCl2, 0.36 mg/ml BSA, and 90 nM ^3H-dTTP. Assays are run with and without CHAPS, (3-[(3-cholamidopropyl)-dimethylammonio]-1-propane-sulfonate) at a final concentration of 2 mM. HCMV polymerase is diluted in enzyme dilution buffer containing 50% glycerol, 250 mM NaCl, 10 mM HEPES (pH 7.5), 100 μg/ml BSA, and 0.01% sodium azide. The HCMV polymerase, which is expressed in recombinant baculovirus-infected SF-9 cells and purified according to literature procedures, is added at 10% (or 10 μl) of the final reaction volume, i.e., 100 μl. Compounds are diluted in 50% DMSO and 10 μl are added to each well. Control wells contain an equivalent concentration of DMSO. Unless noted otherwise, reactions are initiated via the addition of 6 nM biotinylated poly(dA)-oligo(dT) template/primer to reaction mixtures containing the enzyme, substrate, and compounds of interest. Plates are incubated in a 25 C or 37 C H2O bath and terminated via the addition of 40 μl/reaction of 0.5 M EDTA (pH 8) per well. Reactions are terminated within the time-frame during which substrate incorporation is linear and varied depending upon the enzyme and conditions used, i.e., 30 min. for HCMV polymerase. Ten μl of streptavidin-SPA beads (20 mg/ml in PBS/10% glycerol) are added following termination of the reaction. Plates are incubated 10 min. at 37 ° C., then equilibrated to room temperature, and counted on a Packard Topcount. Linear regressions are performed and IC50's are calculated using computer software.
A modified version of the above HCMV polymerase assay is performed as described above, but with the following changes: Compounds are diluted in 100% DMSO until final dilution into assay buffer. In the previous assay, compounds are diluted in 50% DMSO. 4.5 mM dithiothreotol (DTT) is added to the polymerase buffer.

[3] = biological target: HSV polymerase (Human herpesvirus 1, UniProt P04293); experiment: biochemical
[4] = read-out: polymerase IC50 (μM) VZV
[5] = read-out: polymerase IC50 (μM) HSV

Chain of HSV polymerase (P04293 whole entry): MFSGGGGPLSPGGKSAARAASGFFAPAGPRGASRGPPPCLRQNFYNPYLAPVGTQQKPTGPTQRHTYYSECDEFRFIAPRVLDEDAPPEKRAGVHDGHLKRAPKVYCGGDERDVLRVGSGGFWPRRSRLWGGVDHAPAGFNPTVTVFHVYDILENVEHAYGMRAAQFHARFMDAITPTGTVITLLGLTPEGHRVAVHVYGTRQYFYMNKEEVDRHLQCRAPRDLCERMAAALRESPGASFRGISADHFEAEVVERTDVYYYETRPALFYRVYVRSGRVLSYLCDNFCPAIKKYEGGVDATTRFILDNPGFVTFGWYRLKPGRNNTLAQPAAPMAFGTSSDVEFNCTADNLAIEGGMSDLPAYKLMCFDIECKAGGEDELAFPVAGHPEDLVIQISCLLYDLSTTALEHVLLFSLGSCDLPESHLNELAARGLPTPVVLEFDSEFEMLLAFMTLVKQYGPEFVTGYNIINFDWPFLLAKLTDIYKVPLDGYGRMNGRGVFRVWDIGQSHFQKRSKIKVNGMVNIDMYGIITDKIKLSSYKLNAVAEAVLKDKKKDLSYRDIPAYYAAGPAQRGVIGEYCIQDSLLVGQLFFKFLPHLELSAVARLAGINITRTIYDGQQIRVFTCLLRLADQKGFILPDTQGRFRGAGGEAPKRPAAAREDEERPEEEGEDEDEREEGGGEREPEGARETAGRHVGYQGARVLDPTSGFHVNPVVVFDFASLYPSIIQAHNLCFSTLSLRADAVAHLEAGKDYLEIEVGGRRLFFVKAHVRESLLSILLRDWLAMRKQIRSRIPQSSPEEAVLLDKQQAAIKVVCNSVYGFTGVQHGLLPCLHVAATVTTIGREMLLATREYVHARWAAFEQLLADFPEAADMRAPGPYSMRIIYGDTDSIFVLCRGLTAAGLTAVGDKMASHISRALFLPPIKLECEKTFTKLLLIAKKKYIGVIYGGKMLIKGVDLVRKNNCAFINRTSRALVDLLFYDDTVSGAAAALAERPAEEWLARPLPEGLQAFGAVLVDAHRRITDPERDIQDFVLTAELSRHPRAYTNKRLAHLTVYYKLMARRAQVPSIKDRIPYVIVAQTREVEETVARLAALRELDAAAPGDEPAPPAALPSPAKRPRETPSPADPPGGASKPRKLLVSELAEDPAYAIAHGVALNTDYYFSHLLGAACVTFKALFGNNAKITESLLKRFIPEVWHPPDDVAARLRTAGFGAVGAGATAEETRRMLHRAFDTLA
Chain of VZV polymerase (P09252 whole entry): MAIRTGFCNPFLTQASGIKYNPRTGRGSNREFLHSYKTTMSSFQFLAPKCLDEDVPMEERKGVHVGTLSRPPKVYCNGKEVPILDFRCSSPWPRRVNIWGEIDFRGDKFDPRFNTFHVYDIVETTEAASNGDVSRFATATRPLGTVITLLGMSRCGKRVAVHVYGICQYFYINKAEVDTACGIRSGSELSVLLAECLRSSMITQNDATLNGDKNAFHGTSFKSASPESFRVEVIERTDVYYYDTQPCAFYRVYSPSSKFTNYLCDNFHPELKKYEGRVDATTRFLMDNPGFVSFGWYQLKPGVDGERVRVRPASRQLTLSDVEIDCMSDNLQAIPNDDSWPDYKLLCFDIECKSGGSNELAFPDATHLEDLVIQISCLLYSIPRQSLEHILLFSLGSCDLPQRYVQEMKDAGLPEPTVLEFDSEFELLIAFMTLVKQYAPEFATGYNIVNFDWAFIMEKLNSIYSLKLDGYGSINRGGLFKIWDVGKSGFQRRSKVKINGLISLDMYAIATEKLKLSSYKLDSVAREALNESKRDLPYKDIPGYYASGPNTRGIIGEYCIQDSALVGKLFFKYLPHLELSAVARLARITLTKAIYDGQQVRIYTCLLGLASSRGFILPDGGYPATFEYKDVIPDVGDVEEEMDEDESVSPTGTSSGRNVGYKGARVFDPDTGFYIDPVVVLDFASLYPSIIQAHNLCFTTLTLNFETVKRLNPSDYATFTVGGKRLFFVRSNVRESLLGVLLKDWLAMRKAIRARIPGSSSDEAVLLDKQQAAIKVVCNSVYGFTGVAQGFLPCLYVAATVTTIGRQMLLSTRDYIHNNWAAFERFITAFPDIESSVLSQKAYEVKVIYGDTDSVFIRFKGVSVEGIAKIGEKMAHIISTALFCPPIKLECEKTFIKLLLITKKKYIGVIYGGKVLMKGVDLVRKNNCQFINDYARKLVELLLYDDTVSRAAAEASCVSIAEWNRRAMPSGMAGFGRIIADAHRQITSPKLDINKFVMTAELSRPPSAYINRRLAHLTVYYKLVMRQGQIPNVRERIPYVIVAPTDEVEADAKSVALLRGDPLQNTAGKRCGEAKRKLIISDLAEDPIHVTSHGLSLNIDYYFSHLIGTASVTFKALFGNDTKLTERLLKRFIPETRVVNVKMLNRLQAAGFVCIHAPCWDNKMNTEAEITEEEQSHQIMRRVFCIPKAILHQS
T1 sequence (P08546 whole entry): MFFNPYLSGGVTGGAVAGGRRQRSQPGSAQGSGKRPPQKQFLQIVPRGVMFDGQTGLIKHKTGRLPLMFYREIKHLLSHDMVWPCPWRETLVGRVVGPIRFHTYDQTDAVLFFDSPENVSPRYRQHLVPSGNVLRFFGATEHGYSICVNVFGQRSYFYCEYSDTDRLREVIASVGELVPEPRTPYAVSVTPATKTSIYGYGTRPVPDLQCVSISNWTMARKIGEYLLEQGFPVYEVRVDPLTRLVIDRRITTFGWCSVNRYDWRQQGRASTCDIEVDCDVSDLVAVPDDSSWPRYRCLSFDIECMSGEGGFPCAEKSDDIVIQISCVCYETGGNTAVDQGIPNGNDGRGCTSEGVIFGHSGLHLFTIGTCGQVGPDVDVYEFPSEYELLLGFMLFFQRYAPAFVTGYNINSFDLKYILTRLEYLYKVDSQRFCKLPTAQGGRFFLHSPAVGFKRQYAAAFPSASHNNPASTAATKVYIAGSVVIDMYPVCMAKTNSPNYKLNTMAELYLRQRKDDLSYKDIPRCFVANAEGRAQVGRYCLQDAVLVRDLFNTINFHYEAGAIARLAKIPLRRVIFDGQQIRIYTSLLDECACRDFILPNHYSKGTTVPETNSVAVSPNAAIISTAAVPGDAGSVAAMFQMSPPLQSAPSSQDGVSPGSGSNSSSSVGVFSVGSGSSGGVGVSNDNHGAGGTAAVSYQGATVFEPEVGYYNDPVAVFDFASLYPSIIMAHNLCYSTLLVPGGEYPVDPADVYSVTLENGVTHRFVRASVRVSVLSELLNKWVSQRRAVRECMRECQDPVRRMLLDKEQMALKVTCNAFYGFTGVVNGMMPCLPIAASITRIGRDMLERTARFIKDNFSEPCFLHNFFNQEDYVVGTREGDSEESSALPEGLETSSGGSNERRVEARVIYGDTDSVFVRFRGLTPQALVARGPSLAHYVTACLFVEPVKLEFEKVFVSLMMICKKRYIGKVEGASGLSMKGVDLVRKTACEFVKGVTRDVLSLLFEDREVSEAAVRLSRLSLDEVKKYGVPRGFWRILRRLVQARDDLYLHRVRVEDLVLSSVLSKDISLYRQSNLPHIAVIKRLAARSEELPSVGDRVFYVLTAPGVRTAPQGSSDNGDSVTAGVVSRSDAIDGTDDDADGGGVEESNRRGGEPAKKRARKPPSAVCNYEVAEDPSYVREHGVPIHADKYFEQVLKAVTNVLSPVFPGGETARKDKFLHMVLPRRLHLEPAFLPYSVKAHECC

| SMILES | IC50 [2] | melting point | IC50 [1, 4] | IC50 [3, 5] | IC50 [3] | IC50 [1] |
| --- | --- | --- | --- | --- | --- | --- |
| CCN(CC)CCn1cc(C(=O)NCc2ccc(Cl)cc2)c(=O)c2cc(C#CCO)sc21 [Example 18, N-(4-Chlorobenzyl)-7-[2-(diethylamino)ethyl]-2-(3hydroxy-1-propynyl)4-oxo4,7-dihydrothieno[2,3-b]pyridine-5-carboxamide hydrochloride] | 1.7 µM |  | 0.39 µM | 0.95 µM |  |  |
| Cn1cc(C(=O)NCc2ccc(Cl)cc2)c(=O)c2cc(CN3CCOCC3)sc21 [Example 36, N-(4-Chlorobenzyl)-7-methyl-2-(4-morpholinylmethyl)-4-oxo-4,7-dihydrothieno[2,3-b]pyridine-5-carboxamide] | 1.8 µM |  | 0.77 µM |  | 1.2 µM |  |
| CCn1cc(C(=O)NCc2ccc(Cl)cc2)c(=O)c2cc(CCCCO)sc21 [Example 20, N-(4-Chlorobenzyl)-7-ethyl-2-(4-hydroxybutyl)4-oxo-4,7-dihydrothieno[2,3-b]pyridine-5-carboxamide] | 0.18 µM | 136 to 139 °C |  |  |  |  |
| COCC#Cc1cc2c(O)c(C(=O)NCc3ccc(Cl)cc3)cnc2s1 [Example 6, N-(4-Chlorobenzyl)-4-hydroxy-2-(3-methoxy-1-propynyl)-thieno[2,3-b]pyridine-5-carboxamide] | 5.8 µM | 215 to 218 °C |  |  |  |  |
| Cn1cc(C(=O)NCc2ccc(Cl)cc2)c(=O)c2cc(CCCO)sc21 [Example 25, N-(4-Chlorobenzyl)-2-(3-hydroxypropyl)-7-methyl4-oxo-4,7-7dihydrothieno[2,3-b]pyridine-5-carboxamide] | 0.4 µM |  |  | 0.45 µM |  | 0.46 µM |
| O=C(NCc1ccc(Cl)cc1)c1cnc2sc(CO)cc2c1O [Example 34, N-(4-Chlorobenzyl)-4-hydroxy-2-(hydroxymethyl)thieno[2,3-b]pyridine-5-carboxamide] | > 20 µM | 205 to 210 °C |  |  |  |  |
| CCn1cc(C(=O)NCc2ccc(Cl)cc2)c(=O)c2ccsc21 [Example 12, N-(4-Chlorobenzyl)-7-ethyl-4-oxo-4,7-dihydrothieno[2,3-b]pyridine-5-carboxamide] | 11 µM | 183 to 184 °C |  |  |  |  |
| O=C(NCc1ccc(Cl)cc1)c1cnc2sc(C#CCCO)cc2c1O [Example 7, N-(4-Chlorobenzyl)-4-hydroxy-2-(4-hydroxy-1-butynyl)thieno[2,3-b]pyridine-5-carboxamide] | 8 µM | 242 to 246 °C |  |  |  |  |
| CCn1cc(C(=O)NCc2ccc(Cl)cc2)c(=O)c2cc(C#CCOC(=O)CN3CCOCC3)sc21 [Example 30, 3-(5-{[(4-Chlorobenzyl)amino]carbonyl}-7-ethyl-4-oxo-4,7-dihydrothieno[2,3-b]pyridin-2-yl)-2-propynyl 2-(4-Morpholinyl)acetate] | 28.2 µM | 168 to 170 °C |  |  |  |  |
| CCN(CC)CCn1cc(C(=O)NCc2ccc(Cl)cc2)c(=O)c2cc(CCCO)sc21 [Example 22, N-(4-Chlorobenzyl)-7-[2-(diethylamino)ethyl]-2-(3-hydroxypropyl)4-oxo4,7-dihydrothieno[2,3-b]pyridine-5-carboxamide Hydrorhloride] | 0.81 µM | 111 to 114 °C |  |  |  |  |
| O=C(O)Cn1cc(C(=O)NCc2ccc(Cl)cc2)c(=O)c2cc(C#CCO)sc21 [Example 19, 2-[5-{[(4-Chlorobenzyl)amino]carbonyl}-2-(3-hydroxy-1-propynyl)4-oxothieno[2,3-b]pyridin-7(4H)-yl]acetic Acid] | 0.86 µM | 230 to 235 °C (dec.) |  |  |  |  |
| O=C(NCc1ccc(Cl)cc1)c1cnc2sc(Br)cc2c1O [Example 4, 2-Bromo-N-(4-chlorobenzyl)-4-hydroxythieno[2,3-b]pyridine-5-carboxamide] | 10.8 µM | 234 to 236 °C |  |  |  |  |
| COC(=O)C(CC#Cc1cc2c(O)c(C(=O)NCc3ccc(Cl)cc3)cnc2s1)C(=O)OC [Example 10, Dimethyl 2-[3-(5-{[(4-Chlorobenzyl)amino]carbonyl}-4-hydroxythieno[2,3-b]pyridin-2-yl)-2-propynyl]malonate] | 34.3 µM | 197 to 198 °C |  |  |  |  |
| CCn1cc(C(=O)NCc2ccc(Cl)cc2)c(=O)c2cc(CCCO)sc21 [Example 16, N-(4-Chlorobenzyl)-7-ethyl-2-(3-hydroxypropyl)-4-oxo-4,7-dihydrothieno [2,3-b] pyfidine-5-carboxamide] | 0.67 µM | 144 to 146 °C |  |  |  |  |
| O=C(NCc1ccc(Cl)cc1)c1cnc2sc(S(=O)(=O)N3CCOCC3)cc2c1O [Example 3, N-(4-Chlorobenzyl)-4-hydroxy-2-(4-morpholinylsulfonyl)-thieno[2,3-b]pyridine-5-carboxamide] | 15.9 µM | > 300 °C |  |  |  |  |

More lines, main results first:

| IC50 [2] | melting point | SMILES | IC50 [1, 4] | IC50 [3, 5] | IC50 [3] | IC50 [1] |
| --- | --- | --- | --- | --- | --- | --- |
| 1.9 µM | 194 to 196 °C | CCn1cc(C(=O)NCc2ccc(Cl)cc2)c(=O)c2cc(CN3CCOCC3)sc21 [Example 42, N-(4-Chlorobenzyl)-7-ethyl-2-(4-morpholinylmethyl)-4-oxo-4,7-dihydrothieno[2,3-b]pyridine-5-carboxamide] |  |  |  |  |
| 18.5 µM | 222 to 225 °C | Cn1cc(C(=O)NCc2ccc(Cl)cc2)c(=O)c2cc(CO)sc21 [Example 35, N-(4-Chlorobenzyl)-2-(hydroxymethyl)-7-methyl-4-oxo-4,7-dihydrothieno[2,3-b]pyridine-5-carboxamide] |  |  |  |  |
| < 0.31 µM | 187 °C | CN(Cc1cc2c(=O)c(C(=O)NCc3ccc(Cl)cc3)cn(C)c2s1)CC(O)c1ccc(O)cc1 (stereo not shown) [Example 39, N-(4-Chlorohenzyl)-2-(((2-hydroxy-2-(4-hydroxyphenyl)ethyl)(methyl)amino)methyl)-7-methyl-4-oxo-4,7-dihydrothieno[2,3-b]pyridine-5-carboxamide] |  |  |  |  |
| 3.2 µM | 225 to 226.5 °C | O=C(NCc1ccc(Cl)cc1)c1cn(Cc2ccccc2)c2sc(CN3CCOCC3)cc2c1=O [Example 49, 7-Benzyl-N-(4-chlorobenzyl)-2-(4-morpholinylmethyl)-4-oxo-4,7-dihydrothieno[2,3-b]pyridine-5-carboxamide] |  |  |  |  |
| 2.6 µM | 214 to 216 °C | Cn1cc(C(=O)NCc2ccc(F)cc2)c(=O)c2cc(CN3CCOCC3)sc21 [Example 45, N-(4-Fluorobenzyl)-7-methyl-2-(4-morpholinylmethyl)-4-oxo-4,7-dihydrothieno[2,3-b]pyridine-5-carboxamide] |  |  |  |  |
| 3.8 µM | 214 to 215 °C | O=C(NCc1ccc(Cl)cc1)c1cn(Cc2cccc(F)c2)c2sc(CN3CCOCC3)cc2c1=O [Example 50, N-(4-Chlorobenzyl)-7-(3-fluorobenzyl)-2-(4-morpholinyl-methyl)-4-oxof47-dihydrothieno[2,3-b]pyridine-5-carboxamide] |  |  |  |  |
| 4 µM | 178 to 180 °C | O=C(NCc1ccc(Cl)cc1)c1cn(CCN2CCCC2)c2sc(CN3CCOCC3)cc2c1=O [Example 53, N-(4-Chlorobenzyl)-2-(4-morpholinylmethyl)-4-oxo-7-[2-(1-pyrrolidinyl)ethyl]-4,7-dihydrothieno[2,3-b]pyridine-5-carboxamide] |  |  |  |  |
| > 20 µM | 217 to 219 °C | O=C(NCc1ccc(Cl)cc1)c1cnc2sc(C(=O)N3CCOCC3)cc2c1O [Example 47, N-(4-Chlorobenzyl)-4-hydroxy-2-(4-morpholinyl-carbonyl)-thieno[2,3-b]pyridine-5-carboxamide] |  |  |  |  |
| 1.5 µM | 191 to 195 °C | O=C(NCc1ccc(Cl)cc1)c1cn(CC2CCCO2)c2sc(CN3CCOCC3)cc2c1=O (stereo not shown) [Example 52] |  |  |  |  |
| 5 µM | 208 to 210 °C (dec.) | O=C(NCc1ccc(Cl)cc1)c1cn(Cc2ccncc2)c2sc(CN3CCOCC3)cc2c1=O [Example 55, N-(4-Chlorobenzyl)-2-(4-morpholinylmethyl)-4-oxo-7-(4-pyridinylmethyl)-4,7-dihydrothieno[2,3-b]pyridine-5-carboxamide] |  |  |  |  |
| 1.2 µM | 169 to 171 °C | O=C(NCc1ccc(Cl)cc1)c1cn(CCCc2ccccc2)c2sc(CN3CCOCC3)cc2c1=O [Example 51, N-(4-Chlorobenzyl)-2-(4-morpholinylmethyl)-4-oxo-7-(3-phenylpropyl)-4,7-dihydrothieno[2,3-b]pyridine-5-carboxamide] |  |  |  |  |
